Like-named read-outs stand apart in the source and are kept apart here.
Experiments:
[1] = biological target: recombinant Plk1 (Homo sapiens, UniProt P53350); assay: In Vitro Plk1 Enzyme Assay (SPA, GST-Cdc25C phosphorylation); assay type: biochemical; conditions: ATP 64 nM, 90 minutes, read-out: IC50 (Plk1 enzyme inhibition)
Experimental: Reactions were stopped by addition of EDTA (110 mM) and the Cdc25C substrate captured via its GST tag to anti-GST antibody (Molecular Probes, Cat No A-5800) coated Protein A PVT SPA beads (Amersham Biosciences, Catalogue No. RPQ0019; 250 μg/well) in 50 mM HEPES pH7.5 buffer containing 0.05% (w/v) sodium azide and incubated for up to 2 hours, followed by the addition of 20 μl of 4M caesium chloride (final assay concentration of 1M). Plates were then left in the dark overnight before counting on a Packard TopCount NXT.
Radiolabelled phosphorylated substrate is formed in situ as a result of Plk1 mediated phosphorylation. The SPA beads contain a scintillant that can be stimulated to emit light. This stimulation only occurs when a radiolabelled phosphorylated substrate is bound to the surface of the coated SPA bead causing the emission of blue light that can be measured on a scintillation counter. Accordingly, the extent of Plk1 mediated Cdc25C phosphorylation was assessed. The raw assay data were then analysed by non-linear regression analysis and Plk1 enzyme inhibition for a given test compound is expressed as an IC50 value.

[2] = tested on: human colon tumour cell line HT29; assay: Cellular Assay (phosphohistone H3 Ser10 mitotic marker, HT29); assay type: cell-based; conditions: HT-29, 24 h, HT29 cells
Experimental: Chromosome condensation in mitosis is accompanied by phosphorylation of histone H3 on serine 10.
After 24 hours, cells were fixed in 3.7% (v/v) formaldehyde then permeabilised and blocked for 10 minutes in 100 μl 0.5% (v/v) Triton X-100, 1% (w/v) bovine serum albumin (BSA) in phosphate buffered saline (PBS). […] The raw assay data were analysed by non-linear regression analysis and used to determine an IC50 value for each compound.

[3] = read-out: IC50 (cellular assay, phosphohistone H3)

Sequence of recombinant Plk1 (P53350 whole entry): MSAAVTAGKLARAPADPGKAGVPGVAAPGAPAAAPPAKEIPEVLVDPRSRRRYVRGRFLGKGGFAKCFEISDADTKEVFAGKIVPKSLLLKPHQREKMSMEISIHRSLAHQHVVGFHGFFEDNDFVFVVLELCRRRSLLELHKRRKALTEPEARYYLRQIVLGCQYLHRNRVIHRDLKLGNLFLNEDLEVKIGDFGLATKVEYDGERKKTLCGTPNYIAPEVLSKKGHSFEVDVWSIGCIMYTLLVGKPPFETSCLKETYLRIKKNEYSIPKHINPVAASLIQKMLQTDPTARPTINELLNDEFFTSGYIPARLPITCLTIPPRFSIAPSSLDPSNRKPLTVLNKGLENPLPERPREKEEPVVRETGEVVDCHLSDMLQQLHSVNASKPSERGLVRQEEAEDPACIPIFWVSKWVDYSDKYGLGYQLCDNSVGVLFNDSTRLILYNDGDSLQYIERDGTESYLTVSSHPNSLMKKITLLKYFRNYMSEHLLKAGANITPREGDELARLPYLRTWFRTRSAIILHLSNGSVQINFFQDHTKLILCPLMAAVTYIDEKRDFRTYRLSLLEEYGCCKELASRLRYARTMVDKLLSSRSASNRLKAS

COc1cc(C(=O)NCCN(C)C)ccc1Nc1ncc2c(n1)N(C1CCCC1)CCC(=O)N2C [Example 14, 4-[(6-cyclopentyl-2-methyl-3-oxo-2,6,8,10-tetrazabicyclo[5.4.0]undeca-8,10,12-trien-9-yl)amino]-N-(2-dimethylaminoethyl)-3-methoxy-benzamide]
IC50 [1]: < 300 nM
IC50 ([2]; read-out: Cell IC50): 92 nM
IC50 [2, 3]: < 300 nM

CCN1CCCC1CNC(=O)c1ccc(Nc2ncc3c(n2)N(C2CCCC2)CCC(=O)N3C)c(OC)c1 (centres unmarked) [Example 15, 4-[(6-cyclopentyl-2-methyl-3-oxo-2,6,8,10-tetrazabicyclo[5.4.0]undeca-8,10,12-trien-9-yl)amino]-N-[(1-ethylpyrrolidin-2-yl)methyl]-3-methoxy-benzamide]
IC50 [1]: < 300 nM
IC50 [2, 3]: < 300 nM

CCN(CC)CCCC(C)NC(=O)c1ccc(Nc2ncc3c(n2)N(C2CCCC2)CCC(=O)N3C)c(OC)c1 (centres unmarked) [Example 17, 4-[(6-cyclopentyl-2-methyl-3-oxo-2,6,8,10-tetrazabicyclo[5.4.0]undeca-8,10,12-trien-9-yl)amino]-N-(5-diethylaminopentan-2-yl)-3-methoxy-benzamide]
IC50 [1]: < 300 nM
IC50 [2, 3]: < 300 nM

CCN(CC)CCNC(=O)c1ccc(Nc2ncc3c(n2)N(C2CCCC2)CCC(=O)N3C)c(OC)c1 [Example 18, 4-[(6-cyclopentyl-2-methyl-3-oxo-2,6,8,10-tetrazabicyclo[5.4.0]undeca-8,10,12-trien-9-yl)amino]-N-(2-diethylaminoethyl)-3-methoxy-benzamide]
IC50 [1]: < 300 nM
IC50 [2, 3]: < 300 nM

COc1cc(C(=O)NCCCN2CCN(C)CC2)ccc1Nc1ncc2c(n1)N(C1CCCC1)CCC(=O)N2C [Example 20, 4-[(6-cyclopentyl-2-methyl-3-oxo-2,6,8,10-tetrazabicyclo[5.4.0]undeca-8,10,12-trien-9-yl)amino]-3-methoxy-N-[3-(4-methylpiperazin-1-yl)propyl]benzamide]
IC50 [1]: < 300 nM
IC50 [2, 3]: < 300 nM

COc1cc(C(=O)NCCCCN(C)C)ccc1Nc1ncc2c(n1)N(C1CCCC1)CCC(=O)N2C [Example 21, 4-[(6-cyclopentyl-2-methyl-3-oxo-2,6,8,10-tetrazabicyclo[5.4.0]undeca-8,10,12-trien-9-yl)amino]-N-(4-dimethylaminobutyl)-3-methoxy-benzamide]
IC50 [1]: < 300 nM
IC50 [2, 3]: < 300 nM

COc1cc(C(=O)NC2CN3CCC2CC3)ccc1Nc1ncc2c(n1)N(C1CCCC1)CCC(=O)N2C (centres unmarked) [Example 22, N-(1-azabicyclo[2.2.2]oct-8-yl)-4-[(6-cyclopentyl-2-methyl-3-oxo-2,6,8,10-tetrazabicyclo[5.4.0]undeca-8,10,12-trien-9-yl)amino]-3-methoxy-benzamide]
IC50 [1]: < 300 nM
IC50 [2, 3]: < 300 nM

COc1cc(C(=O)NCCCN2CCOCC2)ccc1Nc1ncc2c(n1)N(C1CCCC1)CCC(=O)N2C [Example 25, 4-[(6-cyclopentyl-2-methyl-3-oxo-2,6,8,10-tetrazabicyclo[5.4.0]undeca-8,10,12-trien-9-yl)amino]-3-methoxy-N-(3-morpholin-4-ylpropyl)benzamide]
IC50 [1]: < 300 nM
IC50 [2, 3]: < 300 nM

COCCN1CCC(NC(=O)c2ccc(Nc3ncc4c(n3)N(C3CCCC3)CCC(=O)N4C)c(OC)c2)CC1 [Example 29, 4-[(6-cyclopentyl-2-methyl-3-oxo-2,6,8,10-tetrazabicyclo[5.4.0]undeca-8,10,12-trien-9-yl)amino]-3-methoxy-N-[1-(2-methoxyethyl)-4-piperidyl]benzamide]
IC50 [1]: < 300 nM
IC50 [2, 3]: < 300 nM

CCN(CC)CCCCNC(=O)c1ccc(Nc2ncc3c(n2)N(C2CCCC2)CCC(=O)N3C)c(OC)c1 [Example 30, 4-[(6-cyclopentyl-2-methyl-3-oxo-2,6,8,10-tetrazabicyclo[5.4.0]undeca-8,10,12-trien-9-yl)amino]-N-(4-diethylaminobutyl)-3-methoxy-benzamide]
IC50 [1]: < 300 nM
IC50 [2, 3]: < 300 nM

COc1cc(C(=O)NCCCCn2ccnc2)ccc1Nc1ncc2c(n1)N(C1CCCC1)CCC(=O)N2C [Example 31, 4-[(6-cyclopentyl-2-methyl-3-oxo-2,6,8,10-tetrazabicyclo[5.4.0]undeca-8,10,12-trien-9-yl)amino]-N-(4-imidazol-1-ylbutyl)-3-methoxy-benzamide]
IC50 [1]: < 1000 nM
IC50 [2, 3]: < 300 nM

COc1cc(C(=O)NCCN2CC3CCC(C2)O3)ccc1Nc1ncc2c(n1)N(C1CCCC1)CCC(=O)N2C [Example 32, 4-[(6-cyclopentyl-2-methyl-3-oxo-2,6,8,10-tetrazabicyclo[5.4.0]undeca-8,10,12-trien-9-yl)amino]-3-methoxy-N-[2-(8-oxa-3-azabicyclo[3.2.1]oct-3-yl)ethyl]benzamide]
IC50 [1]: < 1000 nM
IC50 [2, 3]: < 300 nM

COc1cc(C(=O)NCCCCN2CCCC2)ccc1Nc1ncc2c(n1)N(C1CCCC1)CCC(=O)N2C [Example 33, 4-[(6-cyclopentyl-2-methyl-3-oxo-2,6,8,10-tetrazabicyclo[5.4.0]undeca-8,10,12-trien-9-yl)amino]-3-methoxy-N-(4-pyrrolidin-1-ylbutyl)benzamide]
IC50 [1]: < 300 nM
IC50 [2, 3]: < 300 nM

COc1cc(C(=O)NCCN2CCN(C)CC2)ccc1Nc1ncc2c(n1)N(C1CCCC1)CCC(=O)N2C [Example 34, 4-[(6-cyclopentyl-2-methyl-3-oxo-2,6,8,10-tetrazabicyclo[5.4.0]undeca-8,10,12-trien-9-yl)amino]-3-methoxy-N-[2-(4-methylpiperazin-1-yl)ethyl]benzamide]
IC50 [1]: < 300 nM
IC50 [2, 3]: < 300 nM

COc1cc(C(=O)NCCN2CCC(F)(F)CC2)ccc1Nc1ncc2c(n1)N(C1CCCC1)CCC(=O)N2C [Example 37, 4-[(6-cyclopentyl-2-methyl-3-oxo-2,6,8,10-tetrazabicyclo[5.4.0]undeca-8,10,12-trien-9-yl)amino]-N-[2-(4,4-difluoro-1-piperidyl)ethyl]-3-methoxy-benzamide]
IC50 [1]: < 1000 nM
IC50 [2, 3]: < 300 nM

COc1cc(C(=O)NCCCNc2ccccn2)ccc1Nc1ncc2c(n1)N(C1CCCC1)CCC(=O)N2C [Example 38, 4-[(6-cyclopentyl-2-methyl-3-oxo-2,6,8,10-tetrazabicyclo[5.4.0]undeca-8,10,12-trien-9-yl)amino]-3-methoxy-N-[3-(pyridin-2-ylamino)propyl]benzamide]
IC50 [1]: < 1000 nM
IC50 [2, 3]: < 300 nM

COc1cc(C(=O)NCCCCN)ccc1Nc1ncc2c(n1)N(C1CCCC1)CCC(=O)N2C [Example 40, N-(4-aminobutyl)-4-[(6-cyclopentyl-2-methyl-3-oxo-2,6,8,10-tetrazabicyclo[5.4.0]undeca-8,10,12-trien-9-yl)amino]-3-methoxy-benzamide]
IC50 [1]: < 300 nM
IC50 [2, 3]: < 30000 nM

COc1cc(C(=O)NC2CCNCC2)ccc1Nc1ncc2c(n1)N(C1CCCC1)CCC(=O)N2C [Example 41, 4-[(6-cyclopentyl-2-methyl-3-oxo-2,6,8,10-tetrazabicyclo[5.4.0]undeca-8,10,12-trien-9-yl)amino]-3-methoxy-N-(4-piperidyl)benzamide]
IC50 [1]: < 300 nM
IC50 [2, 3]: < 300 nM

COc1cc(C(=O)NCCCN)ccc1Nc1ncc2c(n1)N(C1CCCC1)CCC(=O)N2C [Example 42, N-(3-aminopropyl)-4-[(6-cyclopentyl-2-methyl-3-oxo-2,6,8,10-tetrazabicyclo[5.4.0]undeca-8,10,12-trien-9-yl)amino]-3-methoxy-benzamide]
IC50 [1]: < 300 nM
IC50 [2, 3]: < 30000 nM

CNCCNC(=O)c1ccc(Nc2ncc3c(n2)N(C2CCCC2)CCC(=O)N3C)c(OC)c1 [Example 43, 4-[(6-cyclopentyl-2-methyl-3-oxo-2,6,8,10-tetrazabicyclo[5.4.0]undeca-8,10,12-trien-9-yl)amino]-3-methoxy-N-(2-methylaminoethyl)benzamide]
IC50 [1]: < 300 nM
IC50 [2, 3]: < 300 nM

CNCCCNC(=O)c1ccc(Nc2ncc3c(n2)N(C2CCCC2)CCC(=O)N3C)c(OC)c1 [Example 44, 4-[(6-cyclopentyl-2-methyl-3-oxo-2,6,8,10-tetrazabicyclo[5.4.0]undeca-8,10,12-trien-9-yl)amino]-3-methoxy-N-(3-methylaminopropyl)benzamide]
IC50 [1]: < 300 nM
IC50 [2, 3]: < 300 nM

COc1cc(C(=O)NC2CCNC2)ccc1Nc1ncc2c(n1)N(C1CCCC1)CCC(=O)N2C (centres unmarked) [Example 45, 4-[(6-cyclopentyl-2-methyl-3-oxo-2,6,8,10-tetrazabicyclo[5.4.0]undeca-8,10,12-trien-9-yl)amino]-3-methoxy-N-pyrrolidin-3-yl-benzamide]
IC50 [1]: < 300 nM
IC50 [2, 3]: < 300 nM

COc1cc(C(=O)NCC(C)(C)CN)ccc1Nc1ncc2c(n1)N(C1CCCC1)CCC(=O)N2C [Example 46, N-(3-amino-2,2-dimethyl-propyl)-4-[(6-cyclopentyl-2-methyl-3-oxo-2,6,8,10-tetrazabicyclo[5.4.0]undeca-8,10,12-trien-9-yl)amino]-3-methoxy-benzamide]
IC50 [1]: < 300 nM
IC50 [2, 3]: < 300 nM

COc1cc(C(=O)NC[C@@H]2CCNC2)ccc1Nc1ncc2c(n1)N(C1CCCC1)CCC(=O)N2C [Example 47, 4-[(6-cyclopentyl-2-methyl-3-oxo-2,6,8,10-tetrazabicyclo[5.4.0]undeca-8,10,12-trien-9-yl)amino]-3-methoxy-N-[[(3R)-pyrrolidin-3-yl]methyl]benzamide]
IC50 [1]: < 300 nM
IC50 [2, 3]: < 1000 nM

COc1cc(C(=O)NC2CCN(C)CC2)c(F)cc1Nc1ncc2c(n1)N(C1CCCC1)CCC(=O)N2C [Example 48, 4-[(6-cyclopentyl-2-methyl-3-oxo-2,6,8,10-tetrazabicyclo[5.4.0]undeca-8,10,12-trien-9-yl)amino]-2-fluoro-5-methoxy-N-(1-methyl-4-piperidyl)benzamide]
IC50 [1]: < 300 nM
IC50 [2, 3]: < 300 nM

COc1cc(C(=O)NC2CCN(C(C)C)CC2)ccc1Nc1ncc2c(n1)N(C1CCCC1)CCC(=O)N2C [Example 49, 4-[(6-cyclopentyl-2-methyl-3-oxo-2,6,8,10-tetrazabicyclo[5.4.0]undeca-8,10,12-trien-9-yl)amino]-3-methoxy-N-(1-propan-2-yl-4-piperidyl)benzamide]
IC50 [1]: < 300 nM
IC50 [2, 3]: < 300 nM

From patent publication US7709471B2, “Compounds” (AstraZeneca AB, priority 2006, dated 2010)
